Experimental data taken from patent publication US20160039778A1, “TRPV-1 RECEPTOR ANTAGONIST COMPOUND DERIVED FROM 1,3,4-THIADIAZOLE ALKYLAMIDES AND CHALCONES” (UNIVERSIDAD DE CONCEPCION, priority 2012, published 2016).
Like-named read-outs stand apart in the source and are kept apart here. Blank lines part the entries; values can stand above or below the molecule they belong to.

Experiments:
rat TRPV-1 receptor = biological target: T1, rat TRPV-1 receptor (Rattus norvegicus, UniProt O35433); assay: Dose response curve, temperature activation of the TRPV-1 receptor in transfected HEK-293T cells; assay type: cell-based; conditions: relative fluorescence at 50° C., HEK-293T cells transfected with rat TRPV-1, two independent experiments, ± standard deviation
T1 construct: expressed in transfected cells; host or cells: HEK-293T
Experimental: The synthesized compounds were evaluated in HEK-293T cell cultures transfected with cDNA from rat TRPV receptors. […] The influx of calcium was measured with a fluorescent probe, Fluo 4-AM, as in the presence of an antagonist the calcium influx is blocked by the inactivation of the TRPV-1 receptor and cellular fluorescence decreases.
The HEK-293T cells were cultured in a DMEM medium supplemented with 5% fetal bovine serum, 50 U/ml penicillin, […] streptomycin and 2 mM L-glutamine. The cultures were kept at 37°, in a 5% CO2 environment, with 80% relative humidity.
The HEK-293T cells were transfected with rat TPRV-1 pcDNA3, 97 μOpti-MEM and 3 μL of Lipofectamine 2000 were added to a reaction tube and to a second tube 1 μg of DNA and one volume of Opti-MEM were added to complete 100 μL. Both tubes were incubated for 10 minutes, after which they were mixed and incubated for another 15 minutes.
After 48 hours of transfection the cells were treated with 200 μL of trypsin, left to incubate for 5 minutes at room temperature, then gently pipetted and transposed to a 15 ml tube. After being centrifuged at a speed of 6,000 rpm for 10 minutes, the cells were re-suspended in 1 ml of Ringer medium, adding 1 μl of Fluo-4AM 1000×, and incubated at 37° C. for half an hour. After being centrifuged and washed with pH 7.34 PBS 1× to remove the excess probe the cell pellet was re-suspended in 1.5 ml of Ringer medium.
Once the rat TRPV-1 receptor had been transfected, Fluo-4 AM charged HEK 293T cells were plated out in 48-well plates at a cellular density of 50,000 cells per well, with a transfection percentage of 40-50%. Subsequently 2 μL/well of each assayed compound were added and the cells left to incubate at room temperature for 5-10 minutes before the execution of the experiment by temperature. The fluorescence measurements were then read on a real time PCR system that allows an increment of 1° C. every 35 seconds from 36° C. to 55° C. for compounds and from 22-56° C. for transfected cells in absence of compounds. Reading of the fluorescence measurement was done using a FAM filter ([…]). […] The values were then normalized, the data being expressed as relative fluorescence, which is the ratio between the fluorescence variation and the base line.
An assay was carried out on temperature activation of the TRPV-1 receptor by incubating the transfected and Fluo-4AM charged HEK-293T cells in the presence of different concentrations of each compound assayed: 1 μM; 0.1 μM; 0.01 μM; 0.003 μM; 0.001μM; 0.0003 μM, 0.0001 μM y 0.00001 μM. The relative fluorescence data obtained at 50° C. was then used to calculate the fluorescence ratio, which is presented as normalized in relation to the relative fluorescence at initial concentration. In this way, the fluorescence ratios obtained through two independent experiments were averaged and expressed with the respective standard deviation.

TRPV1 receptor = conditions: cited from earlier work; for selectivity for the TRPV-1 receptor: literature statement
[1] = literature statement; cited from earlier work
[2] = literature statement; cited from earlier work; remark: listed apart in the source
[3] = literature statement; cited from earlier work; remark: listed apart in the source
[4] = read-out: half maximal inhibitory concentration (IC50), TRPV1 antagonist
[5] = literature value, read-out: half maximal inhibitory concentration (IC50), TRPV1 antagonist
[6] = 1,3,4-thiadiazole alkylamide derivatives

T1 sequence (O35433 whole entry): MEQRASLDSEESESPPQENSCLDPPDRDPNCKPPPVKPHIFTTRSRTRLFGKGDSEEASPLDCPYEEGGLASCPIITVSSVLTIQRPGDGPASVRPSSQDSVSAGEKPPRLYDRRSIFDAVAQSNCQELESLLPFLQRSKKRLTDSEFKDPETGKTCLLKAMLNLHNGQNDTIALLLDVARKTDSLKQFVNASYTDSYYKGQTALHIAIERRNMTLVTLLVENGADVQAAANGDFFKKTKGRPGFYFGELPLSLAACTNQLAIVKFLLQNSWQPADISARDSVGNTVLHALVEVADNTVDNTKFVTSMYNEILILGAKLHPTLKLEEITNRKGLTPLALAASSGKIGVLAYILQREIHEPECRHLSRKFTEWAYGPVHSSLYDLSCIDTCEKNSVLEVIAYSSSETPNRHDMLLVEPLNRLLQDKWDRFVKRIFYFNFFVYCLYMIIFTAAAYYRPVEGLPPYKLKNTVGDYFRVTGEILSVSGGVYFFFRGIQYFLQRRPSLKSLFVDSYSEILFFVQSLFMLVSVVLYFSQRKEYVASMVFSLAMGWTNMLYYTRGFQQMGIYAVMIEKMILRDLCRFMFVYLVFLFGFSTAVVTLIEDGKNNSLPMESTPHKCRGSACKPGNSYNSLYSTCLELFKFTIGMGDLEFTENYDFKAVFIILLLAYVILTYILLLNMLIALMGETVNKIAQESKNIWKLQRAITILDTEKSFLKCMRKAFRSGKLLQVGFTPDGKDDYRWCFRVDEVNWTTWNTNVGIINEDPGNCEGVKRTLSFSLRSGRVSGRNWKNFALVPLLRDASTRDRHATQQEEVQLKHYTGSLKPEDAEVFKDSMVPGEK

IC50 (rat TRPV-1 receptor; chalcone derivatives): 0.257 ± 0.016 nM
SMILES: COc1cc(C=C(Cl)C(=O)c2ccccc2)ccc1O (stereo in doubt) [q, (2E)-chloro-3-(4-hydroxy-3-methoxyphenyl)-1-phenyl prop-2-en-1-one]

SMILES: CCCCCCCCC(=O)NCc1cc(I)c(O)c(OC)c1 [5-iodononivamide]
IC50 (TRPV1 receptor; [4]): 10 nM

SMILES: C=C(C)[C@]12C[C@@H](C)[C@@]34O[C@](Cc5ccccc5)(O[C@@H]1[C@@H]3C=C(COC(=O)Cc1cc(I)c(O)c(OC)c1)C[C@]1(O)C(=O)C(C)=C[C@@H]41)O2 [5-iodoresiniferatoxin]
IC50 (TRPV1 receptor; [5]): 0.4 nM

SMILES: CCCCCCCCC(=O)NCc1cc(OC)c(O)cc1I [6-iodononivamide]
IC50 (TRPV1 receptor; [4]): 126 nM

SMILES: CC(C)(C)c1ccc(/C=C/C(=O)Nc2ccc3c(c2)OCCO3)cc1 [(E)-3-(4-t-butylphenyl)-N-(2,3-dihydrobenzo[b][1,4]dioxin-6-yl)acrylamide]
IC50 (TRPV1 receptor; literature value, read-out: antagonistic activity IC50): 79 nM

SMILES: CC(C)(C)c1ccc(NC(=O)N2CCN(c3ncccc3Cl)CC2)cc1 [BCTC, N-(4-tertiarybutylphenyl)-4-(3-cholorphyridin-2-yl)tetrahydropyrazine-1(2H)-carbox-amide]
IC50 (TRPV1 receptor; depending on the type of species (rat, mouse or human) of the TRPV1 receptor, literature value, read-out: half maximal inhibitory concentration (IC50), TRPV1 antagonist): 2 to 6 nM
metabolic stability [1]: low
half-life [2]: short
oral bioavailability [2]: moderate
aqueous solubility [3]: poor

IC50 (rat TRPV-1 receptor; [6]): 0.046 ± 0.004 nM
SMILES: CCCCCCCCC(=O)Nc1nnc(-c2cc(I)c(O)c(OC)c2)s1 [a, N-[5-(4-hydroxy-5-methoxy-3-iodophenyl)-1,3,4-thiadiazole-2-yl]-nonamide]

IC50 (rat TRPV-1 receptor; [6]): 0.145 ± 0.051 nM
SMILES: CCCCCCCCC(=O)Nc1nnc(-c2ccc(O)c(OC)c2)s1 [b, N-[5-(4-hydroxy-3-methoxyphenyl)-1,3,4-thiadiazole-2-yl]-nonamide]

SMILES: Oc1cc2c(cc1O)CN(C(=S)NCCc1ccc(Cl)cc1)CCC2 [capsazepine]
selectivity for the TRPV-1 receptor (TRPV1 receptor): low selectivity
IC50 (TRPV1 receptor; [5]): 56.2 nM
metabolic stability [1]: metabolically unstable

IC50 (rat TRPV-1 receptor; [6]): 1.09 ± 0.497 nM
SMILES: CCCCCCCC(=O)Nc1nnc(-c2ccc(O)c(OC)c2)s1 [d, N-[5-(4-hydroxy-3-methoxyfenil)-1,3,4-thiadiazole-2-yl]-octanamide]

IC50 (rat TRPV-1 receptor; [6]): 1.263 ± 0.009 nM
SMILES: CCCCCCC(=O)Nc1nnc(-c2cc(I)c(O)c(OC)c2)s1 [e, N-[5-(4-hydroxy-5-methoxy-3-iodophenyl)-1,3,4-thiadiazole-2-yl]heptanamide]

IC50 (rat TRPV-1 receptor; [6]): 0.298 ± 0.026 nM
SMILES: CCCCCC(=O)Nc1nnc(-c2ccc(O)c(OC)c2)s1 [h, N-[5-(4-hydroxy-3-methoxyfenil)-1,3,4-thiadiazole-2-yl]-hexanamide]

IC50 (rat TRPV-1 receptor; chalcone derivatives): 1.02 ± 0.206 nM
SMILES: O=C(/C=C/c1ccccc1)c1ccc(Br)cc1 [i]

SMILES: COc1ccc(/C=C/C(=O)c2ccc(Br)cc2)cc1 [j, (2E)-1-(4-bromophenyl)-3-(4-methoxyphenyl) prop-2-en-1-one]
IC50 (rat TRPV-1 receptor; chalcone derivatives): 3.89 ± 0.225 nM

SMILES: [La] [lanthanum]
selectivity for the TRPV-1 receptor (TRPV1 receptor): lack selectivity
concentration at which activity is presented (TRPV1 receptor; non-competitive antagonist, blocks the ionic channel, literature value): ≥ 100 µM

IC50 (rat TRPV-1 receptor; chalcone derivatives): 7.55 ± 1.9 nM
SMILES: O=C(/C=C/c1ccccc1)/C=C/c1ccccc1 [m, (1E, 4E)-1,5-diphenyl penta-1,4-dien-3-one]

IC50 (rat TRPV-1 receptor; chalcone derivatives): 0.184 ± 0.023 nM
SMILES: O=C(/C=C/c1ccc(O)cc1)/C=C/c1ccc(O)cc1 [n, (1E, 4E)-1,5-(4-hydroxyphenyl) penta-1,4-dien-3-one]

SMILES: C=C(C)[C@]12C[C@@H](C)[C@@]34O[C@](Cc5ccccc5)(O[C@@H]1[C@@H]3C=C(COC(=O)Cc1ccc(O)c(OC)c1)C[C@]1(O)C(=O)C(C)=C[C@@H]41)O2 [resiniferatoxin]
agonist potency relative to capsaicin (TRPV1 receptor): 10 times

SMILES: N.N.N.N.N.N.N.N.N.N.N.N.N.N.[Cl-].[Cl-].[Cl-].[Cl-].[Cl-].[Cl-].[O-2].[O-2].[Ru+3].[Ru+3].[Ru+4] [ruthenium red]
selectivity for the TRPV-1 receptor (TRPV1 receptor): lack selectivity
IC50 (TRPV1 receptor; non-competitive antagonist, blocks the ionic channel, literature value, read-out: antagonistic activity IC50): 170 nM
